Measurements taken from patent US20040191241A1, “Antigen with haptenic mannitol epitopes and a method of preparing antibodies specific to D-mannitol” (COUNCIL OF SCIENTIFIC AND INDUSTRIAL RESEARCH, priority 2003, published 2004).
Read-outs that look alike come from different tables or passages of the source.

How the values were obtained:
[1] = tested on: hapten affinity-purified D-mannitol-specific antibody; assay: ELISA inhibition: specificity and cross-reactivity of the hapten affinity-purified antibody, D-mannitol-KLH coated wells; assay type: binding, rabbit; conditions: for Inhibition in ELISA (in words): comparison among inhibitors; for IC50: read-out: IC50 (concentration required for 50% inhibition in ELISA)
Method: FIG. 5 depicts specificity of the purified D-mannitol-specific antibody determined by ELISA inhibition. D-Mannitol-KLH conjugate (10 ng/well) was used for coating. The purified antibody (at 1:100 dilution) was preincubated with various inhibitors at different concentrations at 37° C. for 1 h before adding to the coated wells.
FIG. 6 depicts stereo specificity of the purified D-mannitol-specific antibody determined by ELISA inhibition. As L-mannitol is not available commercially, L-mannitol-BSA conjugate (prepared using L-mannose) was used as inhibitor and the inhibition was compared with that of D-mannitol-BSA conjugate.
To check for the formation of hapten-specific antibodies the antiserum was analyzed by non-competitive ELISA using the coated antigen format. The titer of the antiserum was determined by measuring the binding of serial dilutions of antiserum to coated mannitol-KLH conjugate. Flat bottom polystyrene microtiter wells were coated with mannitol-KLH conjugate at 1000, 100, 50, 10, and 1 ng per well in carbonate-bicarbonate buffer, pH 9.6 by incubating at 4° C. overnight. The wells were washed thrice between steps using PBS containing 0.05% Tween 20 (PBS-T). Blocking was done using 0.5% gelatin in PBS-T (blocking buffer) at 37° C. for 30 min. Antiserum diluted in blocking buffer (1:10, 1:100, 1:1000, 1:10000, 1:25000, 1:50000, 1:75000; 1:100000, 1:200000, 1:400000) was added (100 μL/well) and incubated at 37° C. for 2 h. Mouse anti-rabbit IgG-alkaline phoshatase secondary antibody (1:5000 dilution in blocking buffer, 100 μL/well) was added and incubated at 37° C. for 1 h. Color development was done using p-nitrophenyl phosphate (1 mg/mL, 100 μL/well) in diethanolamine buffer, pH 9.8, at 37° C. for 30 min. The reaction was stopped by adding 3 M NaOH (40 μL/well) and the absorbance at 405 nm was read in an ELISA reader.
The hapten affinity-purified D-mannitol-specific antibody was used for ELISA experiments to obtain the binding curves using D-mannitol-KLH conjugate for coating, and to study the specificity and cross-reactivity by ELISA inhibition experiments. Here, purified antibody was preincubated with various concentrations of inhibitors at 37° C. for 1 h before adding to coated microtiter wells. Other steps were as described under ‘Titration of antiserum’. Percent cross-reactivity for various inhibitors was calculated using the formula: […]

[2] = tested on: mannitol-specific mast cell-bound human IgE; assay: Skin prick test (SPT) in an allergic subject sensitized to mannitol; assay type: in vivo; conditions: for Wheal diameter / Flare diameter: SPT, free compounds at 0.1%; for Wheal diameter: first figure of wheal/flare; for Flare diameter: second figure of wheal/flare
Description: A D-mannitol-BSA and D-mannitol-KLH conjugate was used for skin prick test (SPT) in a mannitol-allergic subject, after obtaining Institutional Ethics Committee (IEC) clearance, and informed consent. D-Mannitol and its conjugates with BSA and KLH produced positive test whereas, D-mannose and control BSA and control KLH gave negative test (Table 2). L-Mannitol BSA conjugate was negative in SPT. All these samples were negative in SPT in 10 normal subjects.

[3] = (IC50 for D-mannitol ÷ IC50 for test compound) × 100
[4] = free sugars/sugar alcohols as competitor, D-mannitol-KLH 10 ng/well coating, antibody 1:100, preincubated 37° C. 1 h

Compound: OC[C@@H](O)[C@@H](O)[C@H](O)[C@@H](O)CO [D-Glucitol]
- Percent cross-reactivity [1, 3]: 8.8%
- Percent cross-reactivity ([1]; (IC50 for D-mannitol ÷ IC50 for test compound) × 100, listed as D-glucitol (sorbitol)): ~9%
- Inhibition in ELISA (in words) [1]: higher compared to that by meso-erythritol and D-mannose
- IC50 [1, 4]: 60 mM

Compound: OC[C@@H](O)[C@@H](O)[C@H](O)[C@H](O)CO [D-Mannitol]
- SPT result (positive/negative) [2]: positive
- Wheal diameter [2]: 5 mm
- Flare diameter [2]: 25 mm
- Percent cross-reactivity [1, 3]: 100.0%
- Inhibition in ELISA (in words) [1]: maximum inhibition
- IC50 [1, 4]: 5.25 mM

Compound: O=C[C@@H](O)[C@@H](O)[C@H](O)[C@H](O)CO [D-Mannose]
- SPT result (positive/negative) [2]: negative
- Wheal diameter [2]: 1 mm
- Flare diameter [2]: 0 mm
- Percent cross-reactivity [1, 3]: 4.9%

Compound: NCCc1c[nH]cn1 [Histamine base]
- Wheal diameter [2]: 6 mm
- Flare diameter [2]: 30 mm

Compound: NCCCC[C@H](N)C(=O)O [L-lysine]
- Percent cross-reactivity [1, 3]: 2%

Compound: OCC(O)C(O)CO (stereo not drawn) [meso-Erythritol]
- Percent cross-reactivity [1, 3]: 4.9%

Compound: Control BSA: BSA incubated under the conjugation conditions, excluding D-mannose
- SPT result (positive/negative) [2]: negative
- Wheal diameter [2]: 1 mm
- Flare diameter [2]: 0 mm

Compound: N-(1-deoxy-D-mannitol-1-yl)n-carrier [D-Mannitol-BSA conjugate]
- SPT result (positive/negative) [2]: positive
- Wheal diameter [2]: 4 mm
- Flare diameter [2]: 30 mm
- IC50 ([1]; BSA conjugates as inhibitor (stereospecificity, FIG. 6)): 0.00064 mM
- Percent cross-reactivity ([1]; conjugate inhibitors, relative to D-mannitol-BSA conjugate): 100.00%

Compound: N-(1-deoxy-D-mannitol-1-yl)n-carrier [D-Mannitol-KLH conjugate]
- SPT result (positive/negative) [2]: positive
- Wheal diameter [2]: 4 mm
- Flare diameter [2]: 25 mm
